Assays:
healthy women [1] = assay: Clinical trial of contraceptive effectiveness of a transdermal patch (% of women pregnant by weight or BMI category); assay type: in vivo; conditions: 120 μg/d LNG + 30 μg/d EE patch, 13 cycles (one year)
From the text: To obtain the required data that would allow us to determine the personalized dosage of progestin required for each woman, we performed a clinical trial which is shown below as Example 1. When administered 120 micrograms per day of levonorgestrel (LNG), the number of women in each body weight category and the percent of the women in each category that became pregnant over a period of one year is shown in Table 1 and graphically depicted in FIG. 1.
In a clinical trial, 2032 healthy women, aged 18 and over, were enrolled in 102 investigative sites in the US. It was an open label, 13 cycle trial (one year) to study the effectiveness of a transdermal patch delivering 120 μg per day of levonorgestrel (LNG) and 30 μg per day of ethinyl estradiol (EE). The treatment regimen for each cycle was three consecutive 7-day patches (21 days) followed by one patch-free week.
The women enrolled in the different weight categories (in pounds) are shown in the second column of Table 1.
The percentage of women that became pregnant over the 13 cycle period is shown in column 3 of Table 1. A graph of the percentage of women that became pregnant in each weight category is also graphically illustrated in FIG. 1.
The same analysis was performed using the BMI of the women enrolled in the trial.

healthy women [2] = assay: Statistical (quadratic regression) analysis of LNG required dose with confidence limits; assay type: in vivo; design: dose required: unit: μg; conditions: for Daily LNG Required Dose, 1.5% Pregnancy Rate Dose / Daily LNG Required Dose, 3% Pregnancy Rate Dose: EE 30 μg; for level of LNG equivalent: women with body weight of over 200 pounds, 30 μg EE per day
From the text: Z represents the applicable coefficient to obtain a desired level of confidence (e.g. a coefficient of two would imply a 95.5% confidence level and a coefficient of three would imply a 99.7% confidence level). The other variables are the same as indicated above. For example, the dose required for a 150 pound person assuming a 95% confidence level would be determined as follows: […]
Table 7 and FIG. 6 summarize the maximum and the minimum dose of levonorgestrel levels required at the 95.5% level of confidence (two standard deviation units, i.e., two σ) for varying woman BMI categories.
Table 7a and FIG. 6a summarize the maximum and the minimum dose of levonorgestrel levels required at the 68% level of confidence (one standard deviation unit, i.e., one σ) for varying woman BMI categories.
A review of the data points associated with Tables 4 and 5 reveal again a relationship which could be linear or quadratic. Again, since the data has substantial variability in the individual points a statistical analysis of the data was performed. The applicable linear and quadratic equations had correlation coefficients R2 of 0.73 for both 1.5 and 3% pregnancy rates. The standard error for the 1.5% pregnancy rate (linear VS quadratic) as well as the 3% pregnancy rate (linear versus quadratic) was within 10 micrograms of each other. […] We chose to draw FIGS. 4a and 4b based on the quadratic equations, so as to have an easier comparison to the corresponding body weight lines in FIGS. 3a and 3b.
As indicated above the implied equation is shown below, where the symbols Y and X are the same as presented above. The correlation coefficient R2 is 0.73 and the standard error 94.3 micrograms.
The correlation coefficient, R2 is 0.73 and the standard error 46.8. The above equation can be modified to provide a 95.5% confidence level as follows
Table 7 and FIG. 6 summarize the maximum and minimum dose of levonorgestrel levels required at the 95% confidence for varying woman BMI categories as determined from the modified equations described above.
Therefore another practical approach is to treat all women with body weight of over 200 pounds with the same formulations. For example for women co-administered 30 μg EE per day, the level of LNG equivalent would be 350 μg per day (for the 1.5% pregnancy level), and 200 μg per day (for the 3% pregnancy level). An intermediate level of 260 μg per day can also be prepared.

[3] = cited from earlier work
[4] = BMI >17.5 < 22.5, 68% confidence level, 30 μg EE
[5] = BMI >17.5 < 22.5, 95.5% confidence level, 30 μg EE
[6] = BMI >22.5 < 27.5, 68% confidence level, 30 μg EE
[7] = BMI >22.5 < 27.5, 95.5% confidence level, 30 μg EE
[8] = BMI >27.5 < 32.5, 68% confidence level, 30 μg EE
[9] = BMI >27.5 < 32.5, 95.5% confidence level, 30 μg EE
[10] = BMI >32.5 < 37.5, 68% confidence level, 30 μg EE
[11] = BMI >32.5 < 37.5, 95.5% confidence level, 30 μg EE
[12] = BMI >37.5 < 42.5, 68% confidence level, 30 μg EE
[13] = BMI >37.5 < 42.5, 95.5% confidence level, 30 μg EE
[14] = BMI >42.5 < 47.5, 68% confidence level, 30 μg EE
[15] = BMI >42.5 < 47.5, 95.5% confidence level, 30 μg EE
[16] = BMI >47.5 < 52.5, 68% confidence level, 30 μg EE
[17] = BMI >47.5 < 52.5, 95.5% confidence level, 30 μg EE
[18] = weight 90 to ≤120, 68% confidence level
[19] = weight 90 to ≤120, 95.5% confidence level
[20] = weight 120 to ≤150, 68% confidence level
[21] = weight 120 to ≤150, 95.5% confidence level
[22] = weight 150 to ≤180, 68% confidence level
[23] = weight 150 to ≤180, 95.5% confidence level
[24] = weight 180 to ≤210, 68% confidence level
[25] = weight 180 to ≤210, 95.5% confidence level
[26] = weight 210 to ≤240, 68% confidence level
[27] = weight 210 to ≤240, 95.5% confidence level
[28] = weight 240 to ≤270, 68% confidence level
[29] = weight 240 to ≤270, 95.5% confidence level
[30] = weight 270+, 68% confidence level
[31] = weight 270+, 95.5% confidence level

SMILES: C#C[C@]1(O)CC[C@H]2[C@@H]3CCC4=CC(=O)CC[C@@H]4[C@H]3CC[C@@]21CC [LNG, levonorgestrel]
- % of pregnancies (healthy women [1]; weight category >90 but ≤ 120 pounds): 1.5%
- % of pregnancies (healthy women [1]; weight category >120 but ≤ 150 pounds): 2.66%
- dose required (healthy women [2]; 25 BMI woman, 95% confidence level, 3% pregnancy rate): 26
- LNG daily dosage, high boundary value (healthy women [2]; 27.5 BMI woman, 95.5% confidence, pregnancy rate of 1.5%): 430 microgram
- daily dose, low boundary value (healthy women [2]; 150 pound person, 95.5% confidence, 3 pregnancies per 100 woman years, 30 μg EE): 62.4 µg
- daily dose, high boundary value (healthy women [2]; 150 pound person, 95.5% confidence, pregnancy rate of 1.5%, 30 μg EE): 302 µg
- LNG Daily Required Dose, 1.5% Pregnancy Rate (healthy women [2]; [4]): 283 µg
- LNG Daily Required Dose, 3% Pregnancy Rate (healthy women [2]; [4]): 47 µg
- LNG Daily Required Dose, 1.5% Pregnancy Rate (healthy women [2]; [5]): 378 µg
- LNG Daily Required Dose, 3% Pregnancy Rate (healthy women [2]; [5]): 0.1 µg
- LNG Daily Required Dose, 1.5% Pregnancy Rate (healthy women [2]; [6]): 335 µg
- LNG Daily Required Dose, 3% Pregnancy Rate (healthy women [2]; [6]): 72 µg
- LNG Daily Required Dose, 1.5% Pregnancy Rate (healthy women [2]; [7]): 430 µg
- LNG Daily Required Dose, 3% Pregnancy Rate (healthy women [2]; [7]): 26 µg
- LNG Daily Required Dose, 1.5% Pregnancy Rate (healthy women [2]; [8]): 390 µg
- LNG Daily Required Dose, 3% Pregnancy Rate (healthy women [2]; [8]): 99 µg
- LNG Daily Required Dose, 1.5% Pregnancy Rate (healthy women [2]; [9]): 484 µg
- LNG Daily Required Dose, 3% Pregnancy Rate (healthy women [2]; [9]): 52 µg
- LNG Daily Required Dose, 1.5% Pregnancy Rate (healthy women [2]; [10]): 447 µg
- LNG Daily Required Dose, 3% Pregnancy Rate (healthy women [2]; [10]): 127 µg
- LNG Daily Required Dose, 1.5% Pregnancy Rate (healthy women [2]; [11]): 541 µg
- LNG Daily Required Dose, 3% Pregnancy Rate (healthy women [2]; [11]): 80 µg
- LNG Daily Required Dose, 1.5% Pregnancy Rate (healthy women [2]; [12]): 507 µg
- LNG Daily Required Dose, 3% Pregnancy Rate (healthy women [2]; [12]): 157 µg
- LNG Daily Required Dose, 1.5% Pregnancy Rate (healthy women [2]; [13]): 601 µg
- LNG Daily Required Dose, 3% Pregnancy Rate (healthy women [2]; [13]): 110 µg
- LNG Daily Required Dose, 1.5% Pregnancy Rate (healthy women [2]; [14]): 569 µg
- LNG Daily Required Dose, 3% Pregnancy Rate (healthy women [2]; [14]): 187 µg
- LNG Daily Required Dose, 1.5% Pregnancy Rate (healthy women [2]; [15]): 663 µg
- LNG Daily Required Dose, 3% Pregnancy Rate (healthy women [2]; [15]): 140 µg
- LNG Daily Required Dose, 1.5% Pregnancy Rate (healthy women [2]; [16]): 633 µg
- LNG Daily Required Dose, 3% Pregnancy Rate (healthy women [2]; [16]): 219 µg
- LNG Daily Required Dose, 1.5% Pregnancy Rate (healthy women [2]; [17]): 728 µg
- LNG Daily Required Dose, 3% Pregnancy Rate (healthy women [2]; [17]): 172 µg
- Daily LNG Required Dose, 1.5% Pregnancy Rate Dose (healthy women [2]; [18]): 171 µg/day
- Daily LNG Required Dose, 3% Pregnancy Rate Dose (healthy women [2]; [18]): 41 µg/day
- Daily LNG Required Dose, 1.5% Pregnancy Rate Dose (healthy women [2]; [19]): 215 µg/day
- Daily LNG Required Dose, 3% Pregnancy Rate Dose (healthy women [2]; [19]): 19 µg/day
- Daily LNG Required Dose, 1.5% Pregnancy Rate Dose (healthy women [2]; [20]): 258 µg/day
- Daily LNG Required Dose, 3% Pregnancy Rate Dose (healthy women [2]; [20]): 84 µg/day
- Daily LNG Required Dose, 1.5% Pregnancy Rate Dose (healthy women [2]; [21]): 302 µg/day
- Daily LNG Required Dose, 3% Pregnancy Rate Dose (healthy women [2]; [21]): 62 µg/day
- Daily LNG Required Dose, 1.5% Pregnancy Rate Dose (healthy women [2]; [22]): 331 µg/day
- Daily LNG Required Dose, 3% Pregnancy Rate Dose (healthy women [2]; [22]): 120 µg/day
- Daily LNG Required Dose, 1.5% Pregnancy Rate Dose (healthy women [2]; [23]): 375 µg/day
- Daily LNG Required Dose, 3% Pregnancy Rate Dose (healthy women [2]; [23]): 98 µg/day
- Daily LNG Required Dose, 1.5% Pregnancy Rate Dose (healthy women [2]; [24]): 389 µg/day
- Daily LNG Required Dose, 3% Pregnancy Rate Dose (healthy women [2]; [24]): 148 µg/day
- Daily LNG Required Dose, 1.5% Pregnancy Rate Dose (healthy women [2]; [25]): 433 µg/day
- Daily LNG Required Dose, 3% Pregnancy Rate Dose (healthy women [2]; [25]): 126 µg/day
- Daily LNG Required Dose, 1.5% Pregnancy Rate Dose (healthy women [2]; [26]): 432 µg/day
- Daily LNG Required Dose, 3% Pregnancy Rate Dose (healthy women [2]; [26]): 169 µg/day
- Daily LNG Required Dose, 1.5% Pregnancy Rate Dose (healthy women [2]; [27]): 476 µg/day
- Daily LNG Required Dose, 3% Pregnancy Rate Dose (healthy women [2]; [27]): 147 µg/day
- Daily LNG Required Dose, 1.5% Pregnancy Rate Dose (healthy women [2]; [28]): 459 µg/day
- Daily LNG Required Dose, 3% Pregnancy Rate Dose (healthy women [2]; [28]): 183 µg/day
- Daily LNG Required Dose, 1.5% Pregnancy Rate Dose (healthy women [2]; [29]): 503 µg/day
- Daily LNG Required Dose, 3% Pregnancy Rate Dose (healthy women [2]; [29]): 161 µg/day
- Daily LNG Required Dose, 1.5% Pregnancy Rate Dose (healthy women [2]; [30]): 472 µg/day
- Daily LNG Required Dose, 3% Pregnancy Rate Dose (healthy women [2]; [30]): 189 µg/day
- Daily LNG Required Dose, 1.5% Pregnancy Rate Dose (healthy women [2]; [31]): 516 µg/day
- Daily LNG Required Dose, 3% Pregnancy Rate Dose (healthy women [2]; [31]): 167 µg/day
- level of LNG equivalent (healthy women [2]; 1.5% pregnancy level): 350 μg per day
- level of LNG equivalent (healthy women [2]; 3% pregnancy level): 200 μg per day
- increase of free LNG circulating in the plasma ([3]; for every 10 μg per day of EE delivered): 300 picograms per ml
- approximate steady state level of LNG ([3]; plasma): ~1500 picograms LNG per ml

— patent publication US20200129524A1, “PERSONALIZED CONTRACEPTIVE FORMULATIONS” (Agile Therapeutics, Inc., priority 2017, published 2020)
